In US20180258428A1, “METHODS AND COMPOSITIONS FOR THE TREATMENT OF A METABOLIC DISORDER” (Children's Hospital Medical Center, priority 2017, published 2018):
Where two headings read alike, the source gives them in different places.

Assays:
primary hepatocytes [1] = assay: Glucose production assay in primary hepatocytes; format: cell-based, mouse; conditions: primary hepatocytes from L-Ago2 WT and KO mice, 100 or 200 μM
Protocol: To investigate how Ago2 regulates glucose metabolism, Applicant first examined capacities of hepatic gluconeogenesis in Ago2-deficient primary hepatocytes. […] Applicant additionally asked if Ago2 regulates the fundamental catabolic capacities of hepatocytes. To examine the glycolytic rate, the extracellular acidification rate (ECAR) was determined in primary hepatocytes upon addition of glucose. […] Glycolysis produces pyruvate that is used as an energy source for the citric acid cycle.
Glucose production assay. Mouse primary hepatocytes were cultured in 12-well plates (0.4×10^6 cells per well) in William E supplemented with 10% FBS. Next day, cells were cultured with 1 ml of DMEM (5.5 mM glucose) supplemented with 10% FBS. Post plating for 21 hours, cells were washed twice with PBS and were subjected 3-4 hours to serum starvation with FBS-free DMEM (5.5 mM glucose). After washing twice with PBS, cells were cultured in 0.4 ml of glucose production buffer consisting of glucose-free DMEM (pH 7.4) without phenol red supplemented with 20 mM sodium lactate, 2 mM sodium pyruvate, 2 mM L-glutamine and 15 mM HEPES^62. Cells were incubated at 37° C. for 4.5 hours with or without Bt-cAMP or pCPT-cAMP. Both medium and cells were collected. The glucose concentration was measured with the Autokit Glucose (WAKO) and was normalized by the total protein content.

AMPK [2] = assay: AMPK activation in MEFs with cycloheximide (western blot); format: cell-based, mouse; conditions: 25 μg/ml cycloheximide for 8 hours
Source text: Since Ago2 slicer activity uniquely regulates RNA silencing, Applicant then asked if the slicer activity is involved in the regulation of energy consumption and AMPK activation. […] More importantly, Applicant also observed that AMPK activity, assessed by phosphorylation levels of AMPKα and ACC, was higher in Ago2-deficient MEFs under serum starvation condition (FIG. 16A). […] While activated AMPKα is known to suppress mRNA translation^41, levels of nascent protein synthesis in Ago2-deficient MEFs are increased compared to the cells reconstituted with WT Ago2 (FIG. 16B). To investigate if enhanced protein synthesis reasons AMPK activation in Ago2-deficiency, Applicant treated MEFs with cycloheximide (CHX), a protein synthesis inhibitor, and monitored AMPK activation.
Mouse embryonic fibroblasts. Ago2-deficient fibroblasts reconstituted with Ago2 WT or DA mutant that were kindly provided by Dr. Eric Lai^22. Applicant generated Ago2^fl/fl MEFs through the 3T3 protocol and performed an adenovirus-mediated gene transfer for Cre or LacZ expression to obtain Ago2-deficient MEFs^60. MEF cells were cultured in Dulbecco Modified Eagle Medium (DMEM) (Thermo Fisher Scientific: #11965) supplemented with 10% FBS. For western blot analyses of AMPK, MEF cells were plated at a density of 1×10^5 cells per well of 6-well plate for overnight. […]

primary hepatocytes [3] = assay: ATP/ADP ratio assay in primary hepatocytes with metformin; format: cell-based, mouse; conditions: Ago2-deficient primary hepatocytes, 1 mM metformin
Source text: To further examine if Ago2 deficiency accelerates cellular energy consumption associated with protein synthesis, Applicant treated primary hepatocytes with metformin, which is an anti-diabetic drug and inhibits mitochondrial respiratory-chain complex I activity restricting ATP generation^40, and measured ATP/ADP levels. […] To directly investigate the effect of Ago2-deficiency on protein synthesis in hepatocytes, Applicant measured the levels of nascent protein synthesis. […] By restricting energy supply using phenformin and rotenone, both of which inhibit mitochondrial respiratory-chain complex I activity, the levels of nascent protein synthesis in Ago2-deficient hepatocytes were equivalent or still higher compared to those in controls (FIG. 6G).
Primary hepatocytes. Hepatocytes were isolated from liver of 12-14 weeks old L-Ago2 WT and 607 L-Ago2 KO mice by a two-step perfusion method as described previously^59 with a slight modification. […]
ATP/ADP ratio assay. The ATP/ADP ratio in the mouse liver extract or primary hepatocytes was determined using a bioluminescent ATP/ADP Ratio Assay Kit (Abcam) according to the manufacturer's instructions. […]

[4] = Fasting blood glucose in HFD-fed mice before and after oral metformin; format: in vivo, mouse; conditions: oral metformin 80 mg/kg/day for 7 days
Protocol: (§1) Mice. Animal care and experimental procedures were performed according to procedures approved by the animal care committees of our medical center. […] The ALZET osmotic pump were used to deliver 10 nM S961 or vehicle (PBS) in a two-week period. GTTs were performed by intraperitoneal glucose injection (1.5 g/kg) following an overnight food withdrawal for 14 hours. […] Mouse plasma insulin levels were measured using Mouse Ultrasensitive Insulin ELISA kit (ALPCO).

[5] = for glucose tolerance (GTT): one week; for hepatic glycogen contents (S961-induced glycogenolysis) / serum insulin levels (S961-induced hyperinsulinemia): 2 weeks post S961 with metformin
Protocol: as §1

AMPK [6] = assay: AMPK activation in primary hepatocytes with metformin (western blot); format: cell-based, mouse; conditions: Ago2-deficient primary hepatocytes versus controls, 1 mM metformin
Protocol: Primary hepatocytes. Hepatocytes were isolated from liver of 12-14 weeks old L-Ago2 WT and 607 L-Ago2 KO mice by a two-step perfusion method as described previously^59 with a slight modification. Briefly, the liver was first perfused with 30 ml of HBSS supplemented with 10 mM HEPES, 0.5 mM EGTA and 5 mM glucose and then digested with 35 mL of Collagenase X 610 (WAKO) at 100 U/mL dissolved in HBSS buffer supplemented with 10 mM HEPES and 5 mM CaCl2. Liver was collected after perfusion and hepatocyte were released and sedimented at 60 G for 2 mM. Hepatocyte suspension was then layered on a 40% percoll solution (GE Healthcare Life Sciences) and centrifuged at 800 G for 10 min. The alive hepatocytes were recovered from the bottom of the tube and seeded on culture plates.
Protein extraction and immunoblot analysis. To prepare protein lysates, cells were washed with cold PBS, followed by lysis in cold mammalian cell lysis buffer [MCLB: 50 mM Tris-HCl (pH 7.4), 150 mM NaCl, 10 mM NaF, 5% glycerol, 1% NP-40, 1% protease and phosphatase inhibitor cocktail]. […]

MD-miRNAs = assay: Hepatic miRNA and mRNA expression after S961 or S961 plus metformin treatment; format: in vivo, mouse; conditions: 2 weeks
Source text: Expression profiles that assessed the effect of insulin insufficiency on miRNAs in the liver categorized four different classes of miRNAs; (I) dominantly expressed in L-Ago2 WT, (II) induced by S961 in both L-Ago2 WT and KO, (III) suppressed by S961 in both L-Ago2 WT and KO, and (IV) expressed in L-Ago2 KO (FIG. 3d). […] These analyses implicate hepatic Ago2-dependent miRNAs play a role in the disruption of glucose metabolism under the condition of insulin insufficiency.
Quantitative real-time PCR analysis. For mRNA quantification, total RNA was extracted using Trizol reagent (Invitrogen). Total RNA was converted to first strand cDNA using SuperScript® VILO™ cDNA Synthesis Kit (Invitrogen). Quantitative real-time PCR analysis was performed using SYBR Select Master Mix (Applied Biosystems) in a real-time PCR machine (QuantStudio 6 Flex Real-Time PCR system; Thermo Fisher Scientific). To normalize expression data, β-actin mRNA was used as a housekeeping gene. For miRNA quantification, total RNA was extracted using miRNeasy Micro Kit (Qiagen) according to manufacturer's instructions. TaqMan miRNA assays (Life Technologies) were used and real-time PCR were carried out for mature miRNA quantification. Primary miRNAs were quantified using TaqMan […] assays. Sno202 and β-actin were used as internal controls.
High-throughput sequencing of miRNA. […]

With Nc1ncnc2c1nc(Sc1ccc(Cl)cc1)n2[C@@H]1O[C@@H]2COP(=O)([O-])O[C@H]2[C@H]1O.[Na+] [pCPT-cAMP, 8-(4-Chlorophenylthio)adenosine 3′,5′-cyclic monophosphate] as the compound, how does the glucose production (primary hepatocytes [1]) read?
The glucose production was “similarly induced between genotypes”.

For C[C@@H]1C[C@@H]([C@H](O)CC2CC(=O)NC(=O)C2)C(=O)[C@@H](C)C1 [cycloheximide], which AMPK activation (AMPK [2]; Ago2-deficient MEFs) is on record?
The AMPK activation was “more robust”.

What about the AMPK activation (AMPK [2]; WT MEFs) of the same compound?
Its AMPK activation is “reduction of AMPK activation”.

For CN(C)C(=N)N=C(N)N [metformin], which “relative ATP/ADP levels” value (primary hepatocytes [3]) is on record?
The value was “rapidly decreased”.

And the “fasting blood glucose levels” value ([4]; L-Ago2 KO mice fed HFD)?
Its value is “no change upon metformin treatment”.

And the “fasting blood glucose levels” value ([4]; L-Ago2 WT mice fed HFD)?
The value was “reduced fasting blood glucose levels”.

What about the “glucose tolerance (GTT)” value ([5]; L-Ago2 KO mice treated with S961, metformin 150 mg/kg/day via osmotic pumps) of the same compound?
Its value is “no change in glucose tolerance”.

What about the “hepatic glycogen contents (S961-induced glycogenolysis)” value ([5]; L-Ago2 KO mice) of the same compound?
Its value is “blunted”.

And the “serum insulin levels (S961-induced hyperinsulinemia)” value ([5]; L-Ago2 KO mice)?
Its value is “blunted”.

And the “glucose tolerance (GTT)” value ([5]; L-Ago2 WT mice treated with S961, metformin 150 mg/kg/day via osmotic pumps)?
Its value is “improved glucose tolerance”.

What about the “hepatic glycogen contents (S961-induced glycogenolysis)” value ([5]; L-Ago2 WT mice) of the same compound?
The value was “alleviated”.

What about the “serum insulin levels (S961-induced hyperinsulinemia)” value ([5]; L-Ago2 WT mice) of the same compound?
Its value is “alleviated S961-induced hyperinsulinemia”.

And the “levels of metformin-induced AMPK activation” value (AMPK [6])?
Its value is “significantly higher than that in controls”.

And the “expression of MD-miRNAs in liver” value (MD-miRNAs; Ago2-deficient liver)?
The value was “did not affect their expression levels”.

And the “expression of S961-induced MD-miRNAs in liver” value (MD-miRNAs; L-Ago2 WT mice)?
Its value is “drastic suppression”.

For CCCC(=O)Nc1ncnc2c1ncn2[C@@H]1O[C@@H]2COP(=O)(O)O[C@H]2[C@H]1OC(=O)CCC [Bt-cAMP, dibutyryl cyclic AMP], which glucose production (primary hepatocytes [1]) is on record?
The glucose production was “similarly induced between genotypes”.
